Measurements reported in PMC2919388, “A Screening Pipeline for Antiparasitic Agents Targeting Cryptosporidium Inosine Monophosphate Dehydrogenase” (PLoS Neglected Tropical Diseases, 2010).
Like-named read-outs stand apart in the source and are kept apart here.

Legend:
[1] = tested on: wild-type T. gondii; experiment: Fluorescent T. gondii growth assay, wild-type strain; assay type: cell-based, Toxoplasma gondii
Excerpt: (§1) Wild-type T. gondii and T. gondii-ΔHXGPRT parasites were transfected with plasmid ptubYFPYFsagCAT [37] which drives constitutive cytoplasmic expression of two copies of the yellow fluorescent protein. Similarly, plasmid pCTR2T [38] was transfected into T. gondii-CpIMPDH resulting in constitutive cytoplasmic expression of a tandem of the tomato variant of the red fluorescent protein [39]. Fluorescent parasites were selected and cloned by cell sorting using a MoFlo Legacy instrument (Beckman Coulter, Inc). Growth of fluorescent clones was monitored in 96 well plates as previously described. Briefly, fluorescence was read daily with a SpectraMax M22/M2e (Molecular Devices) plate reader (Ex 485, Em 530) for 6–7 days. For each of the three fluorescent T. gondii clones percent growth inhibition was calculated on a day within the exponential phase of growth for the purpose of determining an IC50 for each compound.
(§2) Supplementary file pntd.0000794.s002.tif: Figure S2 Obtaining an EC50 value for T. gondii growth. Fluorescent T. gondii parasites are seeded into 96-well plates and spiked with test compound. Fluorescence is measured daily with a SpectraMax M22/M2e (Molecular Devices) plate reader for 6–7 days. The fluorescence readings on a day during the exponential phase of the growth curve, for example day 4 in A, are used to calculated percent growth inhibition. These values are fitted using the 4 parameter model y = D+(A–D)/(1+(x/C)^B) where D is the minimum value, A is the maximum value, C is the EC50 and B is the Hill coefficient, using the SoftMax Pro v5 software, as illustrated in B. The absolute EC50 is recorded at the x intercept where y = 50. (0.33 MB TIF) Click here for additional data file.

[2] = tested on: HCT-8 cells; experiment: Fluorescent HCT-8 host cell growth assay; assay type: cell-based, human; details: for activity at 25 µM: Homo sapiens, HCT-8, compound at 25 μM, relative to DMSO alone; for effect on host cell (HCT-8) growth: in words; for inhibition of HCT-8 cell growth: at 12.5 µM and 25 µM
Description: HCT-8 cells were transfected with plasmid pmaxGFP (Amaxa) using Lipofectamine (Invitrogen). Fluorescent lines were then selected and cloned using cell sorting. Confluent monolayers of pmaxGFP expressing cells were harvested from T75 flasks and passed through a 40 µm cell strainer. Cells were seeded at 4000 cells per well into black, optical quality, thin bottom, 96-well plates. All test compounds were diluted in DMSO as described. The fluorescence was read daily with a SpectraMax M22/M2e (Molecular Devices) plate reader (Ex 485, Em 530) for 6–7 days. Percent inhibition was calculated on a day within the exponential phase of growth.

[3] = tested on: C. parvum; experiment: High-content imaging C. parvum growth assay (FITC-VVL); assay type: cell-based, Cryptosporidium parvum; details: for EC50: Cryptosporidium parvum, HCT-8, 48 h, growth in HCT-8 cells, 48 hours; for potency relative to paromomycin: anticryptosporidial activity
Description: The human ileocecal adenocarcinoma epithelial cell line, HCT-8, was used to support C. parvum infection in vitro. HCT-8 cells were maintained in RPMI-1640 (Hyclone) supplemented with 10% FBS, 1 mM sodium pyruvate, 50 U/m penicillin, 50 µg/ml streptomycin, and amphotericin B. Cryptosporidium parvum oocysts were a kind gift from either Dr. Mead (Emory University) or Dr. Kissinger (University of Georgia). HCT-8 cells (2×10^5) were seeded into black, optical quality, thin bottom, 96-well plates (DB Falcon) to achieve a 70% confluent monolayer on the day of infection. To facilitate oocyst excystation, a procedure described by Gut et al., was followed. Briefly, oocysts were washed twice with 1 ml of PBS (pH 7.2), incubated for 10 minutes at 37°C in 1 ml 10 mM of HCl and then incubated for a further 10 minutes in 0.2 ml of 200 µM sodium taurocholate at 15°C [40]. This oocyst suspension was diluted directly with DMEM (Hyclone) supplemented with 2% FBS, 50 U/ml penicillin, 50 µg/ml streptomycin, amphotericin B and 0.2 mM L-glutamine (infection medium) to inoculate host cell monolayers at 5×10^5 oocysts per well. Host cell monolayers were incubated for 3 hours at 37°C prior to removal of unexcysted oocysts by aspiration and PBS wash. Infection medium was then added to the monolayers and infection was allowed to progress for 48 hours.
The VVL IFA was performed in a 96-well format. Following 48 hours of culture C. parvum infected HCT-8 cells were washed with PBS and fixed with 0.2 ml/well of 3% paraformaldehyde/PBS, permeabilized with 0.25% Triton-X-100/PBS and blocked with 4% BSA/PBS. 0.1 ml of fluorescein (FITC)-conjugated VVL (Vector Labs 0.5 µg/ml) in 1% BSA/PBS was applied to wells and incubated for 45 minutes. The plates were washed twice with 200 µl/well of PBS. In the first wash DAPI was included at 0.1 µg/ml. Finally 200 µl/well of PBS was added to the plates prior to storage at 4°C protected from light.
Confocal images were acquired using a BD Biosciences Bioimager P435. The instrument was programmed to automatically change position and focus, capture montage images of 9–16, 40× fields per well, and then compress and save the image files. Object finding algorithms were developed for the recognition of FITC-VVL labelled C. parvum parasites and DAPI labelled host cell nuclei using Attovision Software (BD Biosciences). Briefly, to identify FITC-VVL labelled parasites, the object finding algorithm included, a flat field correction, a polygon shape setting, a 3×3 rolling ball filter, manual pixel intensity thresholding (100 min – 4095 max), and minimum and maximum object size cut-offs of 5 pixels and 350 pixels respectively. The algorithm optimised for finding DAPI labelled host cell nuclei also included flat field correction and polygon shape setting, but applied a 25×25 rolling ball filter which is more suitable for larger objects, an automated pixel intensity threshold, minimum and maximum object size cut-offs of 200 pixels and 4000 pixels respectively, and a watershed step with an erosion factor of 8 to aid in the separation of adjacent densely packed nuclei. Note that the intensity and area size cut off exclude detection of the much smaller parasite nuclei (the human genome is three hundred times larger than the C. parvum genome).
The object finding analysis steps described above recorded the number and area of objects per montage image. The output files along with a plate map file were then passed to an automated analysis pipeline (Pipeline Pilot Software, Accelrys) to calculate the mean number of parasites, the ratio of parasite number to host cell nuclei number, the mean area of parasites and host cell nuclei by well, and the percentage growth by treatment as compared to the no drug control. These analyses were exported in graphical format for each plate and the numerical values tabulated in html format. […]

[4] = tested on: T. gondii-CpIMPDH; experiment: Fluorescent T. gondii growth assay, CpIMPDH reporter strain; assay type: cell-based, Toxoplasma gondii; details: for Selectivity = EC50(T. gondii-wild-type)/EC50(T. gondii-CpIMPDH): Figure 5 Sel
Excerpt: as §1
To facilitate screening of antiparasitic activity, we constructed a T. gondii reporter parasite that mirrors the Cryptosporidium purine metabolism. Figure 1 summarizes the main differences between the two parasites in this pathway. We started with a T. gondii knockout mutant that, like C. parvum, lacks the ability to salvage xanthine and guanine via HXGPRT (T. gondii-ΔHXGPRT [41]) and introduced the CpIMPDH gene under the control of a T. gondii promoter. Next the native T. gondii IMPDH gene was disrupted by replacing the entire coding sequence with a chloramphenicol acetyl transferase cassette using a new cosmid-based gene targeting approach. […] This manipulation created strain T. gondii-CpIMPDH-ΔHXGPRT-ΔTgIMPDH. Lastly, we introduced a fluorescent protein cassette and isolated stable transgenic parasites by cell sorting. The resulting strain is referred to as T. gondii-CpIMPDH. […] We similarly engineered fluorescent versions of wild-type T. gondii and T. gondii-ΔHXGPRT to serve as controls.
as §2

[5] = tested on: T. gondii-ΔHXGPRT; experiment: Fluorescent T. gondii growth assay, ΔHXGPRT strain; assay type: cell-based; details: Toxoplasma gondii, read-out: T. gondii model EC50 ΔHXGPRT, T. gondii-ΔHXGPRT
Excerpt: as §1, §2

[6] = target: CpIMPDH (Cryptosporidium parvum, UniProt Q8T6T2); details: cited from earlier work
Sequence of CpIMPDH (Q8T6T2 whole entry): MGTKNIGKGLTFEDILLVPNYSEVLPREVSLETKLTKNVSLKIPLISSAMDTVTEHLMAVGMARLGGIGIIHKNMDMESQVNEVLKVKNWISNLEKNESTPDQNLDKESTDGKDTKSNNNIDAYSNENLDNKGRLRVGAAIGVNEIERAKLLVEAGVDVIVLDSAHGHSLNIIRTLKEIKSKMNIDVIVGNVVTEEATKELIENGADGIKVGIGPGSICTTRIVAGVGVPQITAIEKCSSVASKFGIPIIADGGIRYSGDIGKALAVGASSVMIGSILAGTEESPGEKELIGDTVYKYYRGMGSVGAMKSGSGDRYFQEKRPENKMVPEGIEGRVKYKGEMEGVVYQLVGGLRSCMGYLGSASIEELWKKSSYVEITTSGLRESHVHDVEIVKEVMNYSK

[7] = Toxoplasma gondii, wild-type T. gondii, no added xanthine, read-out: T. gondii model EC50 WT
[8] = wild-type T. gondii, no added xanthine, read-out: T. gondii model EC50 WT
[9] = Toxoplasma gondii, read-out: T. gondii model EC50 CpIMPDH, T. gondii-CpIMPDH, absence of xanthine
[10] = read-out: CpIMPDH Inhibition IC50 - BSA

Structure (SMILES)	EC50 [1, 7]	EC50 [1, 8]	activity at 25 µM [2]	effect on host cell (HCT-8) growth [2]	EC50 [3]	Selectivity = EC50(T. gondii-wild-type)/EC50(T. gondii-CpIMPDH) [4]	potency relative to paromomycin [3]	EC50 [5]	selectivity for the T. gondii-CpIMPDH parasite over wild-type T. gondii [4]	EC50 [4, 9]	inhibition of HCT-8 cell growth [2]	IC50 [6, 10]	IC50 ([6]; in the presence of BSA, values marked c, read-out: CpIMPDH Inhibition IC50 + BSA)	IC50 ([6]; without BSA, values marked c, read-out: CpIMPDH Inhibition IC50 - BSA)	EC50 ([4]; read-out: T. gondii model EC50 CpIMPDH, T. gondii-CpIMPDH, absence of xanthine)	IC50 ([6]; read-out: CpIMPDH Inhibition IC50 + BSA)	EC50 ([1]; Toxoplasma gondii, media supplemented with xanthine (0.33 mM), read-out: EC50 wild-type T. gondii with xanthine)	CpIMPDH inhibition by MPA ([6]; at concentrations active against TgIMPDH)
CC(Oc1ccnc2ccccc12)c1cn(-c2ccc(Cl)c(Cl)c2)nn1 (stereo not drawn) [Compound A90]	5 ± 3 µM	≤ 10 µM	77 ± 5%	do not inhibit host cell growth	6 to 13 µM	1.5	–	–	–	–	–	–	–	–	–	–	–	–
C[C@@H](Oc1cc[n+]([O-])c2ccccc12)c1cn(-c2ccc(Cl)cc2)nn1 [Compound A110]	23 ± 2 µM	–	94 ± 12%	–	< 0.8 µM	> 120	> 100 ×	> 25 µM	≥ 36 fold	< 0.2 µM	–	–	–	–	–	–	–	–
CC(Oc1cc[n+]([O-])c2ccccc12)c1cn(-c2ccc(Cl)cc2)nn1 (stereo not drawn) [Compound A100]	> 25 µM	≥ 20 µM	44 ± 10%	–	12 to 25 µM	–	–	≥ 25 µM	≥ 36 fold	0.5 µM	inhibit HCT-8 cell growth significantly	0.03 ± 0.01 µM	–	–	–	–	–	–
C[C@@H](Oc1cncc2ccccc12)c1cn(-c2ccc(Cl)cc2)nn1 [Compound A98]	2.8 ± 0.1 µM	–	65 ± 7%	–	3 to 6 µM	> 12	–	2.3 ± 0.6 µM	–	< 0.2 µM	–	–	0.03 ± 0.001 µM	0.009 ± 0.001 µM	–	–	–	–
C[C@H](Oc1ccnc2ccccc12)c1cn(-c2ccc(C#N)c(Cl)c2)nn1 [Compound A108]	5 µM	–	47 ± 14%	–	12 to 25 µM	1.3	–	–	–	3.9 µM	–	–	–	–	–	–	–	–
CC(Oc1ccc(Cl)c2ccccc12)c1cn(-c2ccc(Cl)cc2)nn1 (stereo not drawn) [Compound A82]	5 ± 2 µM	≤ 10 µM	108 ± 2%	do not inhibit host cell growth	6 to 13 µM	0.9	–	–	–	–	–	0.09 ± 0.03 µM	–	–	≤ 10 µM	–	–	–
C[C@@H](Oc1cccc2c1ccc[n+]2[O-])c1cn(-c2ccc(Cl)cc2)nn1 [Compound A109]	> 25 µM	–	89 ± 16%	–	12 to 25 µM	> 86	–	> 25 µM	≥ 36 fold	0.3 ± 0.1 µM	–	–	–	–	–	0.05 ± 0.01 µM	–	–
C[C@H](Oc1ccnc2ccccc12)c1cn(-c2ccc(Cl)c(Cl)c2)nn1 [Compound A107]	6 µM	–	64 ± 16%	–	< 13 µM	3.1	–	7 µM	–	2.4 µM	–	–	–	–	–	–	–	–
CC(Oc1ccnc2ccccc12)c1cn(-c2ccc(C#N)c(Cl)c2)nn1 (stereo not drawn) [Compound A92]	9 ± 2 µM	–	47 ± 1%	–	3 to 6 µM	1.6	–	8 ± 4 µM	–	5 ± 1 µM	–	–	–	–	–	–	–	–
CC(Oc1ccnc2ccccc12)c1cn(-c2ccc(Cl)cc2)nn1 (stereo not drawn) [Compound A89]	4.9 ± 0.9 µM	–	43 ± 2%	–	< 13 µM	14	–	6 ± 2 µM	–	0.4 ± 0.2 µM	–	–	–	–	–	–	–	–
C[C@@H](Oc1ccnc2ccccc12)c1cn(-c2ccc(Cl)c(Cl)c2)nn1 [Compound A105]	–	–	81 ± 13%	do not inhibit host cell growth	6 to 13 µM	2.9	–	–	–	–	–	–	–	–	–	–	–	–
CCCC(=O)[O-].[Na+] [sodium butyrate, reference compound]	–	–	–	did inhibit HCT-8 growth in a dose-dependent manner	–	–	–	–	–	–	–	–	–	–	–	–	–	–
CC(Oc1cc[n+]([O-])c2ccccc12)c1cn(-c2ccc(Cl)c(Cl)c2)nn1 (stereo not drawn) [Compound A103]	19 ± 4 µM	≥ 20 µM	33 ± 6%	–	< 0.8 µM	36	> 100 ×	17 ± 4 µM	≥ 36 fold	0.5 ± 0.4 µM	inhibit HCT-8 cell growth significantly	–	–	–	–	–	–	–
COc1c(C)c2c(c(O)c1C/C=C(\C)CCC(=O)O)C(=O)OC2 [MPA, mycophenolic acid, reference compound]	2.6 µM	–	–	–	–	–	–	0.29 µM	–	> 65 µM	–	–	–	–	–	–	≥ 78 µM	not inhibited
